Experimental data: ChEMBL document CHEMBL1129570, “2-(Hydroxyalkyl)estradiols: synthesis and biological evaluation” (J Med Chem, 1996)

How the values were obtained:
[1] = biological target: T1, Estrogen receptor (Homo sapiens, UniProt Q92731+P03372); experiment: Affinity estrogen receptor of MCF-7 human mammary cancer cells; type: cell-based; settings: mcf7
[2] = biological target: T1, Estrogen receptor; experiment: (§1) Induction of pS2 mRNA expression in human MCF-7 mammary carcinoma cells; type: functional, cell-based; settings: mcf7
[3] = biological target: T1, Estrogen receptor; experiment: as §1; type: functional, cell-based; settings: mcf7; remark: listed apart in the source
[4] = biological target: T1, Estrogen receptor; experiment: Affinity for estrogen receptor; type: protein assay

Row | EC50 [1] | EC50 [2] | EC50 [3] | EC50 [4] | SMILES
1 | 4890 nM | 272 nM | – | – | C[C@]12CC[C@@H]3c4cc(CCO)c(O)cc4CC[C@H]3[C@@H]1CC[C@@H]2O
2 | 782 nM | – | – | – | C[C@]12CC[C@@H]3c4cc(C=O)c(O)cc4CC[C@H]3[C@@H]1CC[C@@H]2O

Second part, the compound before the results:

Row | SMILES | EC50 [1] | EC50 [2] | EC50 [3] | EC50 [4]
3 | C[C@]12CC[C@@H]3c4cc(CCCO)c(O)cc4CC[C@H]3[C@@H]1CC[C@@H]2O | 5220 nM | 495 nM | 0.004 nM | –
4 | C[C@]12CC[C@@H]3c4cc(CO)c(O)cc4CC[C@H]3[C@@H]1CC[C@@H]2O | 342 nM | 10.3 nM | 2.79 nM | 146 nM
5 | C[C@]12CC[C@@H]3c4cc(O)c(O)cc4CC[C@H]3[C@@H]1CC[C@@H]2O | 1660 nM | 504 nM | – | –
